Laboratory results taken from ChEMBL document CHEMBL1201862, “PubChem BioAssay data set” (2004).
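Tested at 5 concentrations; 48 h exposure; 96-well plates; endpoints linearly interpolated, else capped at highest concentration. GI50 is the concentration that inhibits growth by half.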 Activity calls are given as the source filed them. Cut-off read from the data, not from the text of the source: active = GI50 up to about 1.1 µM and inactive = higher.

Tests used:
Assay in all cases: inhibition of tumour cell growth, NCI panel, 48 h
786-0 = tested on: 786-0
A549 = tested on: A549
COLO 205 = tested on: COLO 205
Hs-578T = tested on: Hs-578T
IGROV-1 = tested on: IGROV-1
KM12 = tested on: KM12
LOX IMVI = tested on: LOX IMVI
MDA-MB-231 = tested on: MDA-MB-231
MOLT-4 = tested on: MOLT-4
Malme-3M = tested on: Malme-3M
NCI-H522 = tested on: NCI-H522
NCI/ADR-RES = tested on: NCI/ADR-RES
OVCAR-4 = tested on: OVCAR-4
OVCAR-5 = tested on: OVCAR-5
TK-10 = tested on: TK-10
U-251 = tested on: U-251
UACC-62 = tested on: UACC-62
UO-31 = tested on: UO-31
HOP-92 = tested on: HOP-92
NCI-H226 = tested on: NCI-H226

Measured: GI50

CCOC(=O)c1c2ccccc2n2c(N)c(C(N)=O)nnc12
inactive: 786-0 21.9 µM | A549 > 100 µM | COLO 205 > 100 µM | Hs-578T 4.36 µM | IGROV-1 1.33 µM | KM12 > 100 µM | LOX IMVI 28.2 µM | MDA-MB-231 18.7 µM | MOLT-4 > 100 µM | Malme-3M 70.8 µM | NCI-H522 28.8 µM | NCI/ADR-RES 35.3 µM | OVCAR-4 > 100 µM | OVCAR-5 > 100 µM | TK-10 11.3 µM | U-251 15.2 µM | UACC-62 19.9 µM | UO-31 74.3 µM

O=C(O)CCCC#CCCCC(=O)O
inactive: 786-0 > 100 µM | A549 > 100 µM | COLO 205 > 100 µM | HOP-92 > 100 µM | Hs-578T > 100 µM | IGROV-1 > 100 µM | KM12 > 100 µM | LOX IMVI > 100 µM | Malme-3M > 100 µM | NCI-H522 > 100 µM | NCI/ADR-RES > 100 µM | OVCAR-4 > 100 µM | OVCAR-5 > 100 µM | TK-10 > 100 µM | U-251 > 100 µM | UACC-62 > 100 µM | UO-31 > 100 µM

O=S(=O)(c1ccccc1)n1cnc(CCc2ccccc2)n1
inactive: 786-0 > 100 µM | A549 > 100 µM | COLO 205 > 100 µM | HOP-92 > 100 µM | IGROV-1 > 100 µM | KM12 > 100 µM | LOX IMVI > 100 µM | MOLT-4 > 100 µM | Malme-3M > 100 µM | NCI-H226 > 100 µM | NCI-H522 > 100 µM | OVCAR-4 > 100 µM | OVCAR-5 > 100 µM | TK-10 > 100 µM | U-251 > 100 µM | UACC-62 > 100 µM | UO-31 > 100 µM

C=C(C(=O)OC)[C@H]1CC/C(C)=C/CC/C(C)=C/CC[C@@]2(C)O[C@@H]2C1
inactive: 786-0 15.5 µM | A549 14.9 µM | COLO 205 15 µM | HOP-92 16.4 µM | IGROV-1 16 µM | KM12 16.5 µM | LOX IMVI 15.5 µM | MDA-MB-231 15.9 µM | MOLT-4 15.8 µM | Malme-3M 25.1 µM | NCI-H226 19.9 µM | NCI-H522 18.2 µM | NCI/ADR-RES 16.4 µM | OVCAR-4 26.8 µM | OVCAR-5 23.4 µM | TK-10 21.5 µM | U-251 20.1 µM | UACC-62 11.9 µM | UO-31 19 µM

C=CCCC1(CCP(=O)(c2ccccc2)c2ccccc2)OCCO1
inactive: 786-0 > 100 µM | A549 > 100 µM | COLO 205 > 100 µM | Hs-578T > 100 µM | IGROV-1 > 100 µM | KM12 > 100 µM | LOX IMVI > 100 µM | MDA-MB-231 > 100 µM | MOLT-4 > 100 µM | Malme-3M > 100 µM | NCI-H522 64.3 µM | NCI/ADR-RES > 100 µM | OVCAR-5 > 100 µM | TK-10 > 100 µM | U-251 > 100 µM | UACC-62 > 100 µM | UO-31 > 100 µM

C#CCCCCC#Cc1ccccc1C(=O)C=[N+]=[N-]
inactive: 786-0 > 100 µM | A549 > 100 µM | COLO 205 > 100 µM | HOP-92 > 100 µM | Hs-578T > 100 µM | IGROV-1 > 100 µM | MDA-MB-231 > 100 µM | MOLT-4 > 100 µM | NCI-H226 > 100 µM | NCI-H522 > 100 µM | OVCAR-4 > 100 µM | OVCAR-5 > 100 µM | TK-10 > 100 µM | U-251 > 100 µM | UACC-62 > 100 µM | UO-31 > 100 µM

CC12CC(c3ccccc3O1)C(C(=O)Nc1ccc(F)cc1)C(=O)N2 (stereo unspecified)
inactive: 786-0 > 100 µM | A549 91 µM | COLO 205 > 100 µM | Hs-578T > 100 µM | IGROV-1 49.1 µM | KM12 > 100 µM | LOX IMVI > 100 µM | MOLT-4 21.1 µM | Malme-3M > 100 µM | NCI-H522 63.2 µM | NCI/ADR-RES 47.4 µM | OVCAR-4 51.9 µM | OVCAR-5 > 100 µM | U-251 > 100 µM | UACC-62 71.6 µM | UO-31 65.9 µM

C[C@]12Cc3cnn(-c4ccc(F)cc4)c3NC1CC[C@@H]1C2CC[C@@]2(C)C1CC[C@@H]2O (stereo partly specified)
inactive: 786-0 2.68 µM | A549 4.14 µM | COLO 205 2.94 µM | HOP-92 11 µM | Hs-578T 3.1 µM | IGROV-1 12.7 µM | KM12 4.95 µM | MDA-MB-231 6.97 µM | MOLT-4 2.5 µM | Malme-3M 11.5 µM | NCI-H226 7.93 µM | NCI-H522 12.2 µM | OVCAR-4 13.2 µM | OVCAR-5 12.7 µM | TK-10 7.71 µM | U-251 5.15 µM | UACC-62 11 µM | UO-31 8.61 µM

C=CCOC(=O)Cn1ccc(=O)[nH]c1=O
inactive: 786-0 > 100 µM | A549 > 100 µM | COLO 205 > 100 µM | Hs-578T > 100 µM | IGROV-1 > 100 µM | KM12 > 100 µM | LOX IMVI > 100 µM | MDA-MB-231 > 100 µM | MOLT-4 > 100 µM | Malme-3M > 100 µM | NCI-H226 > 100 µM | NCI/ADR-RES > 100 µM | OVCAR-5 > 100 µM | TK-10 > 100 µM | U-251 > 100 µM | UACC-62 > 100 µM | UO-31 > 100 µM

CC(O)C(CO)NC(=O)C1CSSCC(NC(=O)C(N)Cc2ccccc2)C(=O)NC(Cc2ccccc2)C(=O)NC(Cc2c[nH]c3ccccc23)C(=O)NC(CCCCN)C(=O)NC(C(C)O)C(=O)N1 (stereo unspecified)
inactive: 786-0 > 100 µM | A549 > 100 µM | COLO 205 > 100 µM | HOP-92 > 100 µM | IGROV-1 > 100 µM | KM12 > 100 µM | LOX IMVI > 100 µM | MDA-MB-231 > 100 µM | MOLT-4 > 100 µM | Malme-3M > 100 µM | NCI-H226 > 100 µM | NCI-H522 > 100 µM | NCI/ADR-RES > 100 µM | OVCAR-4 > 100 µM | OVCAR-5 > 100 µM | TK-10 > 100 µM | U-251 > 100 µM | UACC-62 > 100 µM | UO-31 > 100 µM

CCOC(=O)/C(=C\NC(N)=S)C(=O)c1ccccc1
inactive: 786-0 > 100 µM | A549 > 100 µM | COLO 205 > 100 µM | HOP-92 > 100 µM | IGROV-1 > 100 µM | KM12 > 100 µM | LOX IMVI > 100 µM | MDA-MB-231 > 100 µM | MOLT-4 > 100 µM | NCI-H226 > 100 µM | NCI/ADR-RES > 100 µM | OVCAR-4 > 100 µM | OVCAR-5 > 100 µM | TK-10 > 100 µM | U-251 > 100 µM | UACC-62 > 100 µM | UO-31 > 100 µM

CCOC(=O)C(=Cc1cccnc1C)C(=O)OCC
inactive: 786-0 8.51 µM | A549 15.6 µM | COLO 205 5.6 µM | HOP-92 7.01 µM | IGROV-1 7.6 µM | KM12 3.1 µM | LOX IMVI 3.71 µM | MOLT-4 12.6 µM | Malme-3M 12.2 µM | NCI-H226 31.8 µM | NCI-H522 3.89 µM | OVCAR-4 11 µM | OVCAR-5 17.9 µM | TK-10 12.9 µM | U-251 6.18 µM | UACC-62 6.82 µM | UO-31 5.16 µM

O=C(CC1(O)C(=O)Nc2c(Cl)cc(Cl)cc21)c1ccc([N+](=O)[O-])cc1 (stereo unspecified)
inactive: 786-0 85.3 µM | A549 > 79.8 µM | COLO 205 > 58.5 µM | HOP-92 24.3 µM | IGROV-1 > 52.2 µM | KM12 > 54.8 µM | LOX IMVI > 100 µM | MOLT-4 > 59.4 µM | Malme-3M > 43.9 µM | NCI-H226 30.6 µM | NCI-H522 19.4 µM | OVCAR-4 17.5 µM | OVCAR-5 > 100 µM | TK-10 > 100 µM | U-251 31.7 µM | UACC-62 28.1 µM | UO-31 17.4 µM

Cc1ccc(/C=C2\CCCCCC2=O)cc1
inactive: 786-0 > 100 µM | A549 > 100 µM | COLO 205 > 100 µM | HOP-92 > 100 µM | Hs-578T > 100 µM | IGROV-1 > 100 µM | KM12 > 100 µM | LOX IMVI > 100 µM | MDA-MB-231 > 100 µM | MOLT-4 > 100 µM | Malme-3M > 100 µM | NCI-H226 > 100 µM | NCI-H522 > 100 µM | OVCAR-4 > 100 µM | OVCAR-5 > 100 µM | TK-10 > 100 µM | U-251 > 100 µM | UACC-62 > 100 µM | UO-31 > 100 µM

C=C(C)[C@@H]1CC[C@]2(CO)CC[C@]3(C)[C@H](CC[C@@H]4[C@@]5(C)CC[C@H](O)C(C)(C)[C@@H]5CC[C@]43C)[C@@H]12 [BETULIN]
inactive: 786-0 13.6 µM | A549 9.35 µM | HOP-92 16.7 µM | IGROV-1 34.8 µM | KM12 9.71 µM | LOX IMVI 14.6 µM | MDA-MB-231 33.3 µM | MOLT-4 32.4 µM | Malme-3M 52.5 µM | NCI-H226 39 µM | NCI-H522 20.4 µM | NCI/ADR-RES 30.4 µM | OVCAR-5 55.7 µM | TK-10 17.1 µM | U-251 11.8 µM | UO-31 11.1 µM

CNC(=O)ON(C(C)=O)C(=O)NC [CARACEMIDE]
inactive: 786-0 11 µM | A549 92.3 µM | HOP-92 17.9 µM | IGROV-1 86.9 µM | KM12 59.8 µM | LOX IMVI 33.7 µM | Malme-3M 44.1 µM | NCI-H226 95.1 µM | NCI-H522 21.5 µM | NCI/ADR-RES 67.1 µM | OVCAR-4 63.8 µM | OVCAR-5 126 µM | TK-10 25.5 µM | U-251 82.8 µM | UACC-62 47.6 µM | UO-31 54.3 µM
